What was measured:
[1] = test system: definitive endoderm cells vs hESCs; test: Gene chip analysis (Affymetrix U133 Plus 2.0) of purified definitive endoderm compared to hESCs; type: cell-based, human
Protocol: In the following experiment, RNA was isolated from purified definitive endoderm and human embryonic stem cell populations. Gene expression was then analyzed by gene chip analysis of the RNA from each purified population. Q-PCR was also performed to further investigate the potential of genes expressed in definitive endoderm, but not in embryonic stem cells, as a marker for definitive endoderm. Human embryonic stem cells (hESCs) were maintained in DMEM/F12 media supplemented with 20% KnockOut Serum Replacement, 4 ng/mL recombinant human basic fibroblast growth factor (bFGF), 0.1 mM 2-mercaptoethanol, L-glutamine, non-essential amino acids and penicillin/streptomycin. hESCs were differentiated to definitive endoderm by culturing for 5 days in RPMI media supplemented with 100 ng/mL of recombinant human activin A, fetal bovine serum (FBS), and penicillin/streptomycin. The concentration of FBS was varied each day as follows: 0.1% (first day), 0.2% (second day), 2% (days 3-5). Cells were isolated by fluorescence activated cell sorting (FACS) in order to obtain purified populations of hESCs and definitive endoderm for gene expression analysis. […] Cells were dissociated using trypsin/EDTA (Invitrogen, cat#25300-054), washed in phosphate buffered saline (PBS) containing 2% human serum and resuspended in 100% human serum on ice for 10 minutes to block non-specific binding. Staining was carried out for 30 minutes on ice by adding 200 uL of phycoerythrin-conjugated antibody to 5×10^6 cells in 800 uL human serum. Cells were washed twice with 8 mL of PBS buffer and resuspended in 1 mL of the same. FACS isolation was carried out by the core facility of The Scripps Research Institute using a FACS Vantage (BD Biosciences). Cells were collected directly into RLT lysis buffer and RNA was isolated by RNeasy according to the manufacturers instructions (Qiagen). Purified RNA was submitted in duplicate to Expression Analysis (Durham, N.C.) for generation of the expression profile data using the Affymetrix platform and U133 Plus 2.0 high-density oligonucleotide arrays. Data presented is a group comparison that identifies genes differentially expressed between the two populations, hESCs and definitive endoderm. […] The “Gene_Symbol” column refers to the unique name given to the gene by the HUGO Gene Nomenclature Committee. The “Raw Fold Change” column refers to the fold difference in signal for each gene in definitive endoderm compared to hESCs. The “Unigene,” “LocusLink,” and “OMIM” columns refer to identifiers that are descriptive and functional annotations derived from current National Center for Biotechnology Information (NCBI) releases of the UniGene, LocusLink, OMIM, and HomoloGene publicly available databases. […]

[2] = test system: human definitive endoderm cells; test: Differentiation factor screening: Q-PCR of albumin, PROX1 and TITF1; type: cell-based
Protocol: To exemplify the differentiation factor screening methods described herein, populations of human definitive endoderm cells produced using the methods described herein were separately provided with several candidate differentiation factors while determining the normalized expression levels of certain marker gene products at various time points.
Human definitive endoderm cells were produced as described in the foregoing Examples. In brief, hESCs cells were grown in the presence of 100 ng/ml activin A in low serum RPMI medium for four days, wherein the fetal bovine serum (FBS) concentration on day 1 was 0%, on day 2 was 0.2% and on days 3-4 was 2%. After formation of definitive endoderm, beginning on day 5 and ending on day 10, cell populations maintained in individual plates in RPMI containing 0.2% FBS were treated with one of: Wnt3A at 20 ng/ml, FGF2 at 5 ng/ml or FGF2 at 100 ng/ml. The expression of marker gene products for albumin, PROX1 and TITF1 were quantitated using Q-PCR.

[3] = test system: definitive endoderm cells; test: Maintenance and expansion of definitive endoderm cells in culture in the presence of activin; type: cell-based, human
Source text: Definitive endoderm cells produced by methods described herein have been maintained and expanded in culture in the presence of activin for greater than 50 days without appreciable differentiation. In such cases, SOX17, CXCR4, MIXL1, GATA4, HNF3β expression is maintained over the culture period. Additionally, TM, SPARC, OCT4, AFP, SOX7, ZIC1 and BRACH were not detected in these cultures. It is likely that such cells can be maintained and expanded in culture for substantially longer than 50 days without appreciable differentiation.

[4] = test system: hESCs (hESCyt-25); test: Q-PCR gene expression assay of marker genes in differentiating hESCs; type: cell-based, human; conditions: Wnt3a added to activin A and activin B treated cultures; FIG. 23
Protocol: In the following experiments, real-time quantitative RT-PCR (Q-PCR) was the primary assay used for screening the effects of various treatments on HESC differentiation. In particular, real-time measurements of gene expression were analyzed for multiple marker genes at multiple time points by Q-PCR. Marker genes characteristic of the desired as well as undesired cell types were evaluated to gain a better understanding of the overall dynamics of the cellular populations. The strength of Q-PCR analysis includes its extreme sensitivity and relative ease of developing the necessary markers, as the genome sequence is readily available. Furthermore, the extremely high sensitivity of Q-PCR permits detection of gene expression from a relatively small number of cells within a much larger population. In addition, the ability to detect very low levels of gene expression provides indications for “differentiation bias” within the population. The bias towards a particular differentiation pathway, prior to the overt differentiation of those cellular phenotypes, is unrecognizable using immunocytochemical techniques. […] Additionally, Q-PCR provides a mechanism by which to evaluate the success of a differentiation protocol in a quantitative format at semi-high throughput scales of analysis.
The approach taken here was to perform relative quantitation using SYBR Green chemistry on a Rotor Gene 3000 instrument (Corbett Research) and a two-step RT-PCR format. Such an approach allowed for the banking of cDNA samples for analysis of additional marker genes in the future, thus avoiding variability in the reverse transcription efficiency between samples.
Primers were designed to lie over exon-exon boundaries or span introns of at least 800 bp when possible, as this has been empirically determined to eliminate amplification from contaminating genomic DNA.
We routinely used Q-PCR to measure the gene expression of multiple markers of target and non-target cell types in order to provide a broad profile description of gene expression in cell samples. The markers relevant for the early phases of hESC differentiation (specifically ectoderm, mesoderm, definitive endoderm and extra-embryonic endoderm) and for which validated primer sets are available are provided below in Table 1. […] This is an important fact since the hESCs were often grown on mouse feeder layers. Most typically, triplicate samples were taken for each condition and independently analyzed in duplicate to assess the biological variability associated with each quantitative determination.
To generate PCR template, total RNA was isolated using RNeasy (Qiagen) and quantitated using RiboGreen (Molecular Probes). Reverse transcription from 350-500 ng of total RNA was carried out using the iScript reverse transcriptase kit (BioRad), which contains a mix of oligo-dT and random primers. Each 20 μL reaction was subsequently diluted up to 100 μL total volume and 3 μL was used in each 10 μL Q-PCR reaction containing 400 nM forward and reverse primers and 5 μL 2×SYBR Green master mix (Qiagen). Two step cycling parameters were used employing a 5 second denature at 85-94° C. (specifically selected according to the melting temp of the amplicon for each primer set) followed by a 45 second anneal/extend at 60° C. Fluorescence data was collected during the last 15 seconds of each extension phase. A three point, 10-fold dilution series was used to generate the standard curve for each run and cycle thresholds (Ct's) were converted to quantitative values based on this standard curve. The quantitated values for each sample were normalized to housekeeping gene performance and then average and standard deviations were calculated for triplicate samples. At the conclusion of PCR cycling, a melt curve analysis was performed to ascertain the specificity of the reaction. A single specific product was indicated by a single peak at the Tm appropriate for that PCR amplicon. […]

[5] = fold difference in gene chip signal (Affymetrix U133 Plus 2.0) for each gene in CXCR4-purified definitive endoderm (5 days, 100 ng/mL activin A) compared to SSEA4-purified hESCs
[6] = fold difference in signal for each gene in definitive endoderm (CXCR4-purified, 5 days 100 ng/mL activin A) compared to hESCs (SSEA4-purified), Affymetrix U133 Plus 2.0

Molecule: APOA1
- Raw Fold Change [1, 5]: 15.05 fold

Molecule: BMP2
- Raw Fold Change [1, 5]: 7.76 fold

Molecule: FGF2: growth factor; candidate differentiation factor
- expression of the TITF1 marker gene as compared to definitive endoderm cells on day 4 ([2]; 100 ng/ml FGF2, days 7, 9 and 10, FIG. 36C): substantially increased
- expression of the TITF1 gene product as compared to untreated definitive endoderm ([2]; FGF2 at 5 ng/ml, FIG. 36C): very little effect
- expression of the albumin gene product as compared to definitive endoderm cells on day 4 ([2]; FGF2 at 5 ng/ml, days 9 and 10, FIG. 36A): substantially increased
- expression of the albumin gene product as compared to definitive endoderm cells on day 4 ([2]; FGF2 at 100 ng/ml, days 9 and 10, FIG. 36A): not increased

Molecule: NODAL
- Raw Fold Change [1, 6]: 7.89 fold

Molecule: NPPB
- Raw Fold Change [1, 6]: 35.43 fold

Molecule: activin
- time definitive endoderm cells maintained and expanded in culture without appreciable differentiation [3]: greater than 50 days

B1: Wnt3A: Wnt family growth factor; candidate differentiation factor (protein, UniProt P56704 19-352, looked up)
Protein Wnt-3a: SYPIWWSLAVGPQYSSLGSQPILCASIPGLVPKQLRFCRNYVEIMPSVAEGIKIGIQECQHQFRGRRWNCTTVHDSLAIFGPVLDKATRESAFVHAIASAGVAFAVTRSCAEGTAAICGCSSRHQGSPGKGWKWGGCSEDIEFGGMVSREFADARENRPDARSAMNRHNNEAGRQAIASHMHLKCKCHGLSGSCEVKTCWWSQPDFRAIGDFLKDKYDSASEMVVEKHRESRGWVETLRPRYTYFKVPTERDLVYYEASPNFCEPNPETGSFGTRDRTCNVSSHGIDGCDLLCCGRGHNARAERRREKCRCVFHWCCYVSCQECTRVYDVHTCK
- SOX17 gene expression over that of activins alone [4]: increases
- expression of the albumin gene product as compared to untreated definitive endoderm cells ([2]; 20 ng/ml Wnt3A, days 9 and 10, FIG. 36A): increased

— US8586357B2, “Markers of definitive endoderm” (ViaCyte, Inc., priority 2003, dated 2013)
